Converted amounts (≈) assume the structure as drawn. Like-named read-outs stand apart in the source and are kept apart here.
Key:
MRSA 31 = assay: Antibacterial activity (MIC) against MRSA 31; assay type: cell-based, methicillin-resistant Staphylococcus aureus; details: for MIC: Staphylococcus aureus, MRSA, read-out: antibacterial activities (MIC)
Excerpt: (§1) With respect to compounds (I) of the present invention obtained as described above, their general antibacterial activities and their antibacterial activities (MIC) against various methicillin-resistant strains of Staphylococcus aureus (methicillin-resistant Staphylococcus aureus: MRSA) were investigated. The results will be shown in Table 1, in which the test compounds are indicated by the numbers of their working examples to be described subsequently. Further, as the general antibacterial activities, those of Staphylococcus aureus 209P JC-1 and Escherichia coli NIHJ JC-2 were used.
(§2) (The unit for the figures in the table is µg/mℓ.)

MRSA 33 = assay: Antibacterial activity (MIC) against MRSA 33; assay type: cell-based, methicillin-resistant Staphylococcus aureus; details: for MIC: Staphylococcus aureus, MRSA, read-out: antibacterial activities (MIC)
Excerpt: as §1, §2

[1] = test system: Staphylococcus aureus 209P JC-1; assay: General antibacterial activity (MIC) against Staphylococcus aureus 209P JC-1; assay type: cell-based; details: for MIC: Staphylococcus aureus, read-out: antibacterial activities (MIC)
Excerpt: as §1, §2

[2] = test system: Escherichia coli NIHJ JC-2; assay: General antibacterial activity (MIC) against Escherichia coli NIHJ JC-2; assay type: cell-based; details: for MIC: Escherichia coli; for antibacterial activities (MIC): NIHJ JC-2, 10^6 cfu/mℓ
Excerpt: as §1, §2

[3] = NIHJJC2, NIHJ JC-2, 10^6 cfu/mℓ, read-out: antibacterial activities (MIC)

C[C@H](F)[C@H]1C(=O)N2C(C(=O)O)=C(SC3CCN(c4ccccc4)C3)S[C@H]12 (single isomer, unassigned) [Ex. 107 (Isomer A)]
antibacterial activities (MIC) (MRSA 31; MRSA 31, 10^6 cfu/mℓ): 1.56 µg/mL | antibacterial activities (MIC) (MRSA 33; MRSA 33, 10^6 cfu/mℓ): 1.56 µg/mL | MIC ([1]; 209P JC-1, 10^6 cfu/mℓ): 0.1 µg/mL (≈ 0.253 µM) | MIC [2, 3]: > 25 µg/mL

C[C@H](F)[C@H]1C(=O)N2C(C(=O)O)=C(SC3CCN(c4ccccc4)C3)S[C@H]12 (single isomer, unassigned) [Ex. 107 (Isomer B)]
antibacterial activities (MIC) (MRSA 31; MRSA 31, 10^6 cfu/mℓ): 3.13 µg/mL | antibacterial activities (MIC) (MRSA 33; MRSA 33, 10^6 cfu/mℓ): 3.13 µg/mL | antibacterial activities (MIC) ([1]; 209P JC-1, 10^6 cfu/mℓ): 0.1 µg/mL | antibacterial activities (MIC) [2]: 50 µg/mL

C[C@H](O)[C@@H]1C(=O)N2C(C(=O)O)=C(SCC(=O)NCc3ccccc3)S[C@H]12 [Ex. 13, (5R,6R)-2-(N-benzylcarbamoylmethyl)thio-6-((S)-1-hydroxyethyl)penem-3-carboxylic acid]
MIC (MRSA 31; MRSA 31, 10^6 cfu/mℓ): 12.5 µg/mL (≈ 31.7 µM) | MIC (MRSA 33; MRSA 33, 10^6 cfu/mℓ): 12.5 µg/mL (≈ 31.7 µM) | MIC ([1]; 209P JC-1, 10^6 cfu/mℓ): 0.39 µg/mL (≈ 0.989 µM) | MIC [2, 3]: 3.13 µg/mL (≈ 7.93 µM)

CSC1=C(C(=O)O)N2C(=O)[C@@H]([C@H](C)O)[C@H]2S1 [Ex. 40, (5R,6R)-6-((S)-1-hydroxyethyl)-2-methylthiopenem-3-carboxylic acid]
MIC (MRSA 31; MRSA 31, 10^6 cfu/mℓ): 12.5 µg/mL (≈ 47.8 µM) | MIC (MRSA 33; MRSA 33, 10^6 cfu/mℓ): 12.5 µg/mL (≈ 47.8 µM) | MIC ([1]; 209P JC-1, 10^6 cfu/mℓ): 0.39 µg/mL (≈ 1.49 µM) | MIC [2, 3]: 0.39 µg/mL (≈ 1.49 µM)

CCSC1=C(C(=O)O)N2C(=O)[C@@H]([C@H](C)O)[C@H]2S1 [Ex. 41, (5R,6R)-6-((S)-1-hydroxyethyl)-2-ethylthiopenem-3-carboxylic acid]
MIC (MRSA 31; MRSA 31, 10^6 cfu/mℓ): 12.5 µg/mL (≈ 45.4 µM) | MIC (MRSA 33; MRSA 33, 10^6 cfu/mℓ): 12.5 µg/mL (≈ 45.4 µM) | MIC ([1]; 209P JC-1, 10^6 cfu/mℓ): 0.2 µg/mL (≈ 0.726 µM) | MIC [2, 3]: 0.2 µg/mL (≈ 0.726 µM)

C[C@H](O)[C@@H]1C(=O)N2C(C(=O)O)=C(SCc3ccccc3)S[C@H]12 [Ex. 42, (5R,6R)-6-((S)-1-hydroxyethyl)-2-benzylthiopenem-3-carboxylic acid]
MIC (MRSA 31; MRSA 31, 10^6 cfu/mℓ): 3.13 µg/mL (≈ 9.28 µM) | MIC (MRSA 33; MRSA 33, 10^6 cfu/mℓ): 3.13 µg/mL (≈ 9.28 µM) | MIC ([1]; 209P JC-1, 10^6 cfu/mℓ): 0.1 µg/mL (≈ 0.296 µM) | MIC [2, 3]: 6.25 µg/mL (≈ 18.5 µM)

C[C@H](O)[C@@H]1C(=O)N2C(C(=O)O)=C(SCCc3ccccc3)S[C@H]12 [Ex. 43, (5R,6R)-6-((S)-1-hydroxyethyl)-2-phenethylthiopenem-3-carboxylic acid]
MIC (MRSA 31; MRSA 31, 10^6 cfu/mℓ): 6.25 µg/mL (≈ 17.8 µM) | MIC (MRSA 33; MRSA 33, 10^6 cfu/mℓ): 6.25 µg/mL (≈ 17.8 µM) | MIC ([1]; 209P JC-1, 10^6 cfu/mℓ): 0.2 µg/mL (≈ 0.569 µM) | MIC [2, 3]: 12.5 µg/mL (≈ 35.6 µM)

CCCSC1=C(C(=O)O)N2C(=O)[C@@H]([C@H](C)O)[C@H]2S1 [Ex. 46, (5R,6R)-6-((S)-1-hydroxyethyl)-2-propylthiopenem-3-carboxylic acid]
MIC (MRSA 31; MRSA 31, 10^6 cfu/mℓ): 12.5 µg/mL (≈ 43.2 µM) | MIC (MRSA 33; MRSA 33, 10^6 cfu/mℓ): 12.5 µg/mL (≈ 43.2 µM) | MIC ([1]; 209P JC-1, 10^6 cfu/mℓ): 0.39 µg/mL (≈ 1.35 µM) | MIC [2, 3]: 0.78 µg/mL (≈ 2.7 µM)

CC(C)SC1=C(C(=O)O)N2C(=O)[C@@H]([C@H](C)O)[C@H]2S1 [Ex. 47, (5R,6R)-6-((S)-1-hydroxyethyl)-2-(1-methylethyl)thiopenem-3-carboxylic acid]
MIC (MRSA 31; MRSA 31, 10^6 cfu/mℓ): 12.5 µg/mL (≈ 43.2 µM) | MIC (MRSA 33; MRSA 33, 10^6 cfu/mℓ): 12.5 µg/mL (≈ 43.2 µM) | MIC ([1]; 209P JC-1, 10^6 cfu/mℓ): 0.2 µg/mL (≈ 0.691 µM) | MIC [2, 3]: 0.2 µg/mL (≈ 0.691 µM)

C[C@H](O)[C@@H]1C(=O)N2C(C(=O)O)=C(SCCF)S[C@H]12 [Ex. 48, (5R,6R)-6-((S)-1-hydroxyethyl)-2-(2-fluoroethyl)thiopenem-3-carboxylic acid]
MIC (MRSA 31): 12.5 µg/mL (≈ 42.6 µM) | MIC (MRSA 33): 12.5 µg/mL (≈ 42.6 µM) | MIC ([1]; 209P): 0.2 µg/mL (≈ 0.682 µM) | MIC ([2]; NIHJJC2, read-out: antibacterial activities (MIC)): 0.1 µg/mL (≈ 0.341 µM)

C[C@H](O)[C@@H]1C(=O)N2C(C(=O)O)=C(SC3Cc4ccccc4C3)S[C@H]12 [Ex. 71, (5R,6R)-6-((S)-1-hydroxyethyl)-2-(2-indanyl)thiopenem-3-carboxylic acid]
MIC (MRSA 31; MRSA 31, 10^6 cfu/mℓ): 3.13 µg/mL (≈ 8.61 µM) | MIC (MRSA 33; MRSA 33, 10^6 cfu/mℓ): 1.56 µg/mL (≈ 4.29 µM) | MIC ([1]; 209P JC-1, 10^6 cfu/mℓ): 0.05 µg/mL (≈ 0.138 µM) | MIC [2, 3]: 6.25 µg/mL (≈ 17.2 µM)

C[C@H](O)[C@@H]1C(=O)N2C(C(=O)O)=C(SCCc3ccccn3)S[C@H]12 [Ex. 73, (5R,6R)-6-((S)-1-hydroxyethyl)-2-[2-(2-pyridyl)ethyl]thiopenem-3-carboxylic acid]
MIC (MRSA 31; MRSA 31, 10^6 cfu/mℓ): 6.25 µg/mL (≈ 17.7 µM) | MIC (MRSA 33; MRSA 33, 10^6 cfu/mℓ): 6.25 µg/mL (≈ 17.7 µM) | MIC ([1]; 209P JC-1, 10^6 cfu/mℓ): 0.05 µg/mL (≈ 0.142 µM) | MIC [2, 3]: 0.78 µg/mL (≈ 2.21 µM)

C[C@H](O)[C@@H]1C(=O)N2C(C(=O)O)=C(SCc3ccc4ccccc4c3)S[C@H]12 [Ex. 76, (5R,6R)-6-((S)-1-hydroxyethyl)-2-(2-naphthyl)methylthiopenem-3-carboxylic acid]
MIC (MRSA 31; MRSA 31, 10^6 cfu/mℓ): 3.13 µg/mL (≈ 8.08 µM) | MIC (MRSA 33; MRSA 33, 10^6 cfu/mℓ): 3.13 µg/mL (≈ 8.08 µM) | MIC ([1]; 209P JC-1, 10^6 cfu/mℓ): 0.1 µg/mL (≈ 0.258 µM) | MIC [2, 3]: 12.5 µg/mL (≈ 32.3 µM)

C[C@H](O)[C@@H]1C(=O)N2C(C(=O)O)=C(S[C@H]3CCN(CCF)C3)S[C@H]12 [Ex. 79, (5R,6R)-6-((S)-l-hydroxyethyl)-2-[(S)-1-(2-fluoroethyl)pyrrolidin-3-yl]thiopenem-3-carboxylic acid]
MIC (MRSA 31; MRSA 31, 10^6 cfu/mℓ): 6.25 µg/mL (≈ 17.2 µM) | MIC (MRSA 33; MRSA 33, 10^6 cfu/mℓ): 6.25 µg/mL (≈ 17.2 µM) | MIC ([1]; 209P JC-1, 10^6 cfu/mℓ): 0.1 µg/mL (≈ 0.276 µM) | MIC [2, 3]: 0.1 µg/mL (≈ 0.276 µM)

C[C@H](O)[C@@H]1C(=O)N2C(C(=O)O)=C(SC3CCc4ccccc43)S[C@H]12 (stereo partly drawn) [Ex. 81, (5R,6R)-6-((S)-1-hydroxyethyl)-2-(1-indanyl)thiopenem-3-carboxylic acid]
MIC (MRSA 31; MRSA 31, 10^6 cfu/mℓ): 3.13 µg/mL (≈ 8.61 µM) | MIC (MRSA 33; MRSA 33, 10^6 cfu/mℓ): 3.13 µg/mL (≈ 8.61 µM) | MIC ([1]; 209P JC-1, 10^6 cfu/mℓ): 0.1 µg/mL (≈ 0.275 µM) | MIC [2, 3]: 6.25 µg/mL (≈ 17.2 µM)

C[C@H](O)[C@@H]1C(=O)N2C(C(=O)O)=C(S[C@H]3CCN(CC(=O)c4ccccc4)C3)S[C@H]12 [Ex. 88, (5R,6R)-6-((S)-1-hydroxyethyl)-2-[(S)-1-(2-oxo-2-phenylethyl)pyrrolidin-3-ylthio]penem-3-carboxylic acid]
MIC (MRSA 31; MRSA 31, 10^6 cfu/mℓ): 6.25 µg/mL (≈ 14.4 µM) | MIC (MRSA 33; MRSA 33, 10^6 cfu/mℓ): 6.25 µg/mL (≈ 14.4 µM) | MIC ([1]; 209P JC-1, 10^6 cfu/mℓ): 0.2 µg/mL (≈ 0.46 µM) | MIC [2, 3]: 0.39 µg/mL (≈ 0.898 µM)

CC(=N)N1CC[C@H](SC2=C(C(=O)O)N3C(=O)[C@@H]([C@H](C)O)[C@H]3S2)C1 [Ex. 89, (5R,6R)-6-((S)-1-hydroxyethyl)-2-[(S)-1-(1-iminoethyl)pyrrolidin-3-ylthio]penem-3-carboxylic acid]
MIC (MRSA 31; MRSA 31, 10^6 cfu/mℓ): 6.25 µg/mL (≈ 17.5 µM) | MIC (MRSA 33; MRSA 33, 10^6 cfu/mℓ): 6.25 µg/mL (≈ 17.5 µM) | MIC ([1]; 209P JC-1, 10^6 cfu/mℓ): 0.1 µg/mL (≈ 0.28 µM) | MIC [2, 3]: 0.39 µg/mL (≈ 1.09 µM)

C[C@H](O)[C@@H]1C(=O)N2C(C(=O)O)=C(S[C@@H]3CN[C@H](CO)C3)S[C@H]12 [Ex. 94, (5R,6R)-6-((S)-1-hydroxyethyl)-2-[(2S,4S)-2-hydroxymethylpyrrolidin-4-ylthio]penem-3-carboxylic acid]
MIC (MRSA 31; MRSA 31, 10^6 cfu/mℓ): 6.25 µg/mL (≈ 18 µM) | MIC (MRSA 33; MRSA 33, 10^6 cfu/mℓ): 6.25 µg/mL (≈ 18 µM) | MIC ([1]; 209P JC-1, 10^6 cfu/mℓ): 0.1 µg/mL (≈ 0.289 µM) | MIC [2, 3]: 0.2 µg/mL (≈ 0.577 µM)

CC(=N)N1CC[C@H](SC2=C(C(=O)O)N3C(=O)[C@H]([C@H](C)F)[C@H]3S2)C1 [Ex. 106, (5R,6R)-6-((S)-1-fluoroethyl)-2-[(S)-1-(1-iminoethyl)pyrrolidin-3-ylthio]penem-3-carboxylic acid]
MIC (MRSA 31; MRSA 31, 10^6 cfu/mℓ): 3.13 µg/mL (≈ 8.71 µM) | MIC (MRSA 33; MRSA 33, 10^6 cfu/mℓ): 3.13 µg/mL (≈ 8.71 µM) | MIC ([1]; 209P JC-1, 10^6 cfu/mℓ): 0.05 µg/mL (≈ 0.139 µM) | MIC [2, 3]: 1.56 µg/mL (≈ 4.34 µM)

(5R,6R)-6-((S)-1-fluoroethyl)-2-methylthiopenem-3-carboxylic acid [Ex. 99]
antibacterial activities (MIC) (MRSA 31; MRSA 31, 10^6 cfu/mℓ): 6.25 µg/mL | antibacterial activities (MIC) (MRSA 33; MRSA 33, 10^6 cfu/mℓ): 6.25 µg/mL | antibacterial activities (MIC) ([1]; 209P JC-1, 10^6 cfu/mℓ): 0.1 µg/mL | antibacterial activities (MIC) [2]: 0.78 µg/mL
